Results from patent US20180228730A1, “USE OF WATER-SOLUBLE POLYMERS BASED ON N-VINYLPYRROLIDONE AND ACRYLIC ACID AS PHARMACEUTICAL ADJUVANTS” (BASF SE, priority 2015, published 2018).
Read-outs that look alike come from different tables or passages of the source.

Experiments:
[1] = demineralized water, 100 mg haloperidol per 250 ml, hard gelatine capsules
Experimental: The release of the active ingredient from the spray-dried polymeric salt was carried out in demineralized water. The initial weight was calculated on 100 mg of haloperidol per 250 ml of release medium. The polymeric salt or the crystalline substance correspondingly weighed out were filled into hard gelatine capsules.

[2] = Release of loperamide from extrudates in demineralized water (release device, UV/VIS); assay type: physicochemical; settings: 250 ml demineralized water, 37° C.; spectroscopic detection
Experimental: The active ingredient release from samples 14, 15, 16 and 17 were tested in a release device with automatic spectroscopic measurement (00501FEXXX-D). The extrudates having 5% content of active ingredient were added directly to the release medium at the beginning of the experiment. […] The mixtures were filled into hard gelatine capsules and released therefrom.
Procedure for release (2 hours):
Conditions 0-2 hours: Medium: • 250 ml of demineralized water; • paddle stirrer 50 rpm; • temperature 37° C. • content determination UV/VIS with 1 cm path length cuvette • active ingredient amount 250 mg
The results of the releases are compiled in the following tables and diagrams. The release is complete in all cases.

Release of haloperidol ([1]; 0 min) [%] | Release of haloperidol ([1]; 2 min) [%] | Release of haloperidol ([1]; 4 min) [%] | Release of haloperidol ([1]; 6 min) [%] | Release of haloperidol ([1]; 8 min) [%] | Release of haloperidol ([1]; 10 min) [%] | Release of haloperidol ([1]; 30 min) [%] | Release of haloperidol ([1]; 60 min) [%] | Release of haloperidol ([1]; 120 min) [%] | Structure (SMILES) | Dissolution in the release medium [2]
0.0 | 0.1 | 0.2 | 0.3 | 0.4 | 0.6 | 1.5 | 1.8 | 2.3 | O=C(CCCN1CCC(O)(c2ccc(Cl)cc2)CC1)c1ccc(F)cc1 [Crystalline haloperidol, haloperidol] | –
– | – | – | – | – | – | – | – | – | CN(C)C(=O)C(CCN1CCC(O)(c2ccc(Cl)cc2)CC1)(c1ccccc1)c1ccccc1 [crystalline loperamide (base), loperamide] | no dissolution at all
